Assays:
mitochondrial complex-I = assay: In vivo effect on brain mitochondrial complex-I activity (NADH oxidation); parameters: species or system Sprague Dawley rats; settings: intraperitoneally for 2 weeks, brain mitochondrial (P2) fraction
Protocol: Various doses of MPX were administered intraperitoneally to Sprague Dawley rats for 2 weeks, while a control group was treated with saline. The rats were sacrificed one hour after the last injection, and the mitochondrial (P2) fraction was prepared from the dissected rat brains. Mitochondrial complex-I activity was based on the oxidation of NADH (5.6 mg in 1 ml water) measured at 340 nm (Ramsay et al. 1986. “Inhibition of mitochondrial NADH dehydrogenase by pyridine derivatives and its possible relation to experimental and idiopathic parkinsonism,” Biochem Biophys Res Commun 135:269-275 (this references is hereby incorporated by reference in its entirety)).

[1] = tested on: N-methyl-4-phenyl-1,2,3,6-tetrahydropyridine induced dopaminergic neurodegeneration; settings: in vivo; cited from earlier work
complex-I = settings: mouse, in vivo; cited from earlier work

For `N[C@@H](Cc1ccc(O)c(O)c1)C(=O)O` [Levodopa, L-3,4-dihydroxyphenylalanine], the “mitochondrial complex-I activity” value (mitochondrial complex-I) was “significantly inhibitory effect on complex-I”.

For `O=C(O[C@@H]1Cc2c(O)cc(O)cc2O[C@@H]1c1cc(O)c(O)c(O)c1)c1cc(O)c(O)c(O)c1` [(−)-epigallocatechin-3-gallate], the dopaminergic neurodegeneration [1] is given as “prevents N-methyl-4-phenyl-1,2,3,6-tetrahydropyridine induced dopaminergic neurodegeneration”.

For `CC(=O)N[C@@H](CS)C(=O)O` [N-acetylcysteine], the “age-related decrease in complex-I activity” value (complex-I) is listed as “can protect against age-related decrease in complex-I activity”.

— patent US20050202111A1, “Anti-Parkinson's disease pharmaceutical and method of use” (priority 2004, published 2005)
